Test results published in paper PMC4047118, “BM-1197: A Novel and Specific Bcl-2/Bcl-xL Inhibitor Inducing Complete and Long-Lasting Tumor Regression In Vivo” (PLoS ONE, 2014).
Several values for one entry are separate records, joined by “and”; a condition that tells them apart may be missing. Equal entries are not always repeated. Where two headings read alike, the source gives them in different places.

Key:
H1963 xenograft tumors = experiment: H1963 subcutaneous xenograft model; format: in vivo, SCID mice
Description: (§1) Tumor sizes were measured 2–3 times per week. Tumor growth inhibition was calculated by using the formula: 100% (mean volume of controls - mean volume of treated)/mean volume of controls.
(§2) Figure 10 In vivo antitumor activity of BM-1197. […] Data shown are mean ± SEM for 6–8 mice. (E & F) SCID mice bearing H146 or H1963 cells were treated with 10 mg/kg of BM-1197 IV for the indicated times. Tumor lysates were analyzed by immunoblotting.

DMS53 = experiment: SCLC cell growth inhibition (WST-8), DMS53; format: cell-based; conditions: Homo sapiens, DMS-53; 96-h incubation, means ± SD (n = 3–6)
Description: (§3) All the SCLC cell lines were purchased from American Type Culture Collection (Manassas, VA) and cultured as recommended. All these cell lines were passaged fewer than 6 months after purchase. MCL1 knockout (MCL1^−/−) MEF cells were kindly provided by Dr. David Huang (The Walter and Eliza Hall Institute of Medical Research, Melbourne, Australia). Cell growth inhibition was evaluated by means of a WST-8 assay (Dojindo, Rockville, MD) as described previously. Mitochondrial membrane potential was determined by JC-1 staining using a JC-1 Mitochondrial Membrane Potential Assay kit (Cayman). Apoptosis analysis was performed using an Annexin V/propidium iodide (PI) apoptosis detection kit (Roche Applied Sciences, Indianapolis, IN).

[1] = tested on: BM-1197-insensitive SCLC cell lines; experiment: MCL1 shRNA knockdown, growth inhibition by WST assay; format: cell-based, human; conditions: MCL1 shRNA 2 days, then drug 2 days
Description: ON-TARGETplus SMARTpools for mouse Bax and Bak and non-targeting negative control siRNAs were obtained from Dhamarcon. Transfection was performed using Lipofectamine RNAiMAX (Invitrogen). Lentiviral vector for scrambled and human MCL1 shRNA and lentivirus infection were described previously. Immunoblotting was performed using a published procedure. For immunoprecipitation assays, cells lysed with CHAPS buffer (150 mM NaCl, 10 mM HEPES [pH 7.4], 0.5% Chaps) or Triton buffer (150 mM NaCl, 10 mM HEPES [pH 7.4], 0.5% Triton X-100) supplemented with Complete protease inhibitors (Roche). Immunoprecipitation and immunoblot assays were performed with the indicated antibodies. Active Bax was detected by immunoprecipitation with the Bax 6A7 antibody, which recognizes only the conformationally changed Bax protein [27].
Figure 12 Effects of MCL1 knockdown on BM-1197-induced apoptosis. (A) Cells were transduced with lentiviral particles containing scrambled (SCR) or MCL1-specific shRNAs for 2 days, then treated with BM-1197 for 2 days. The growth-inhibitory activity of BM-1197 was assessed by WST assay. Data are representative of three independent experiments. (B) Cells were transduced with lentiviral particles containing scrambled (SCR) or MCL1-specific shRNAs for 2 days then treated with BM-1197 (100 nM) for 20 h before harvested for immunoblotting.

H146 = experiment: SCLC cell growth inhibition (WST-8), H146; format: cell-based; conditions: Homo sapiens
Description: as §3
Data are representative of two independent experiments.

DMS79 = experiment: SCLC cell growth inhibition (WST-8), DMS79; format: cell-based; conditions: Homo sapiens, DMS-79; 96-h incubation, means ± SD (n = 3–6)
Description: as §3

Bcl-2 = Bcl-2 (Homo sapiens, UniProt P10415); experiment: fluorescence-polarization (FP) binding assay, Bcl-2; conditions: means ± SD (n≥3)
Source text: BM-1197 ( Fig 1 ), was synthesized in a similar manner as described for BM-1074 [16]. We evaluated the binding affinities of BM-1197 to Bcl-2, Bcl-xL and Mcl-1 proteins using our optimized fluorescence-polarization (FP) binding assays.
Data are expressed as means ± SD (n≥3).

H146 xenograft tumors = experiment: H146 subcutaneous xenograft model; format: in vivo, SCID mice
Description: as §1, §2

[2] = single dose 10 mg/kg IV, as early as 3 h, persisting at least 24 hr
[3] = IV daily 10 mg/kg, 5 days per week for 2 weeks, 8 mice

Chain of Bcl-2 (P10415 whole entry): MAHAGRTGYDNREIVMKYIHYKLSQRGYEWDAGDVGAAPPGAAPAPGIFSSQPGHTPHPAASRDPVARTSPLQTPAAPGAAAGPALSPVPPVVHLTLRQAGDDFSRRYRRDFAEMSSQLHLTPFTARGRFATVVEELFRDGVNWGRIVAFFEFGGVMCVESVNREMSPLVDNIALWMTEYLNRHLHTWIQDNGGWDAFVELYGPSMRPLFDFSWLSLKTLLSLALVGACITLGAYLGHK

weight loss (H1963 xenograft tumors; both daily and weekly dose-schedules): < 10%
IC50 (H146; NCI-H146, 96 h, read-out: IC50 (1% FBS), H146, 4 days, WST assay, 1% FBS): 1.9 nM
IC50 (H146; NCI-H146, 96 h, read-out: IC50 (1% FBS+3% HSA), H146, 4 days, WST assay, 1% FBS+3% HSA): 1.9 nM
IC50 (H146; NCI-H146, 96 h, read-out: IC50 (10% FBS), H146, 4 days, WST assay, 10% FBS): 2.6 nM
IC50 (H146; NCI-H146, 96 h, read-out: IC50 (50% FBS), H146, 4 days, WST assay, 50% FBS): 4.8 nM
IC50 (H146; NCI-H146, 96-h incubation, means ± SD (n = 3–6), read-out: IC50 cell growth, H146): 3 ± 2 nM
IC50 (Bcl-2): 3.5 ± 0.7 nM
Ki (Bcl-2): < 1 nM and 0.7 nM
SMILES: Cc1c(S(C)(=O)=O)c(-c2cc(F)cc(N3CCN(c4ccc(NS(=O)(=O)c5ccc(N[C@H](CCN6CCC(O)CC6)CSc6ccccc6)c(S(=O)(=O)C(F)(F)F)c5)cc4)CC3)c2)c(-c2ccc(Cl)cc2)n1C(C)C [BM-1197]
decrease of mean tumor volume seven days after initiation of treatment (H1963 xenograft tumors; 10 mg/kg daily IV dosing): > 90%
mice with tumor regrown 40 days after the last dose (H1963 xenograft tumors; 10 mg/kg daily IV dosing): 1 of 6
mice with complete tumor regression (H1963 xenograft tumors; 10 mg/kg daily IV dosing (5 days per week), 6 mice): 6 mice
mice tumor free for 61 days after the last dose (H1963 xenograft tumors; 10 mg/kg daily IV dosing, 6 mice): 5 mice
mice with palpable tumor on day 59 (H1963 xenograft tumors; daily dosing at 10 mg/kg): one of six mice
apoptosis biomarkers in H1963 tumors (H1963 xenograft tumors; [2]): rapid and robust caspase-3 activation and PARP cleavage
duration of complete tumor regression in 5 out of 6 mice (H1963 xenograft tumors; weekly dosing (15 mg/kg)): 38 days
duration of complete tumor regression in all mice (H1963 xenograft tumors; weekly dosing (15 mg/kg)): 17 days
reduction of mean tumor volume after a single dose (H1963 xenograft tumors; weekly dosing (15 mg/kg)): 66%
tumor response after two doses (H1963 xenograft tumors; weekly dosing (15 mg/kg)): complete tumor regression
mice with re-occurring tumor on day 59 (H1963 xenograft tumors; weekly dosing at 15 mg/kg): all mice
IC50 (DMS53): 538 ± 254 nM
insensitive cell lines in which depletion of MCL1 dramatically enhanced inhibitory activity [1]: 4 of 5
IC50 (DMS79): 54 ± 30 nM
mice tumor free 50 days after the end of the weekly treatment (H146 xenograft tumors; 15 mg/kg weekly IV): 5 of 8
mice with complete tumor regression after eight weekly doses (H146 xenograft tumors; 15 mg/kg weekly IV): 7 of 8
mice with complete tumor regression after five weekly doses (H146 xenograft tumors; 15 mg/kg weekly IV): 4 of 8
decrease of mean tumor volume after 7 doses (H146 xenograft tumors; IV daily 10 mg/kg): 85%
decrease of mean tumor volume after two doses (H146 xenograft tumors; IV daily 10 mg/kg): 40%
mice tumor free 60 days after the end of the treatment (H146 xenograft tumors; [3]): 5 mice
mice tumor free for at least 32 days after the end of the treatment (H146 xenograft tumors; [3]): 8 mice
mice with rapid and complete tumor regression (H146 xenograft tumors; [3]): 8 mice
mean tumor volume after two doses (H146 xenograft tumors; IV daily 10 mg/kg, from 114 mm^3): 69 mm^3
weight loss compared to control group (H146 xenograft tumors; all dose-schedules in H146 model, no other signs of toxicity): no statistically significant weight loss
reduction of mean tumor volume on day 7 (H146 xenograft tumors; single 10 mg/kg dosing, weekly IV schedule): 32%
tumor regression on day 7 (H146 xenograft tumors; single 15 mg/kg dosing, weekly IV schedule): 66%
apoptosis biomarkers in H146 tumors (H146 xenograft tumors; [2]): rapid and robust caspase-3 activation and PARP cleavage
